Measured values: patent US20060008574A1, “Galactosyl isomalt, method for production and use thereof” (priority 2002, published 2006)

Legend:
[1] = tested on: B. infantis DSM 20218; experiment: Fermentation by human bifidobacteria; type: cell-based; design: key: −: no decomposition; +: decomposition and metabolization of galactose from β-1,3-galactosyl isomalt; ++: decomposition and metabolization of galactose and glucose from β-1,3-galactosyl isomalt; +++: complete decomposition of β-1,3-galcatosyl isomalt; conditions: medium 2, 48 h
Procedure: (§1) To investigate the prebiotic and bifidogenic properties of galactosyl isomalt, the growth of various human bifidobacteria was investigated on this substrate in vitro. An anaerobic medium of the following composition was used:
(§2) 22 strains of human bifidobacteria were first precultured in “Hungate” test tubes on the above medium 1, in which the source of carbohydrate had first been replaced by glucose (10 g/L). The strains were then inoculated onto medium 2, incubated for 48 h, and then the optical density (E578), the pH, the formation of acetate and lactate and the decrease of the β-1,3-galactosyl isomalt concentration were determined.
(§3) Various decomposition paths are distinguished with regard to the metabolization of galactosyl isomalt. Some strains degrade galactose from the substrate with a β-galactosidase and metabolize this monosaccharide (+).
(§4) Other strains additionally degrade glucose from the resulting isomalt, in addition to galactose, metabolize both monosaccharides, while this is not true for the resulting mannitol or sorbitol (++). The third group is capable of utilizing galactosyl isomalt as a substrate and also metabolizing mannitol and sorbitol (+++).

[2] = tested on: B. catenulatum DSM 20103; experiment: Fermentation by human bifidobacteria; type: cell-based; design: key: −: no decomposition; +: decomposition and metabolization of galactose from β-1,3-galactosyl isomalt; ++: decomposition and metabolization of galactose and glucose from β-1,3-galactosyl isomalt; +++: complete decomposition of β-1,3-galcatosyl isomalt; conditions: medium 2, 48 h
Procedure: as §1, §2, §3, §4

[3] = tested on: B. pseudocatenulatum DSM 20439; experiment: Fermentation by human bifidobacteria; type: cell-based; design: key: −: no decomposition; +: decomposition and metabolization of galactose from β-1,3-galactosyl isomalt; ++: decomposition and metabolization of galactose and glucose from β-1,3-galactosyl isomalt; +++: complete decomposition of β-1,3-galcatosyl isomalt; conditions: medium 2, 48 h
Procedure: as §1, §2, §3, §4

[4] = tested on: B. pseudocatenulatum DSM 20438; experiment: Fermentation by human bifidobacteria; type: cell-based; design: key: −: no decomposition; +: decomposition and metabolization of galactose from β-1,3-galactosyl isomalt; ++: decomposition and metabolization of galactose and glucose from β-1,3-galactosyl isomalt; +++: complete decomposition of β-1,3-galcatosyl isomalt; conditions: medium 2, 48 h
Procedure: as §1, §2, §3, §4

[5] = tested on: B. longum DSM 20097; experiment: Fermentation by human bifidobacteria; type: cell-based; design: key: −: no decomposition; +: decomposition and metabolization of galactose from β-1,3-galactosyl isomalt; ++: decomposition and metabolization of galactose and glucose from β-1,3-galactosyl isomalt; +++: complete decomposition of β-1,3-galcatosyl isomalt; conditions: medium 2, 48 h
Procedure: as §1, §2, §3, §4

[6] = tested on: B. breve DSM 20213; experiment: Fermentation by human bifidobacteria; type: cell-based; design: key: −: no decomposition; +: decomposition and metabolization of galactose from β-1,3-galactosyl isomalt; ++: decomposition and metabolization of galactose and glucose from β-1,3-galactosyl isomalt; +++: complete decomposition of β-1,3-galcatosyl isomalt; conditions: medium 2, 48 h
Procedure: as §1, §2, §3, §4

[7] = tested on: B. infantis DSM 20088; experiment: Fermentation by human bifidobacteria; type: cell-based; design: key: −: no decomposition; +: decomposition and metabolization of galactose from β-1,3-galactosyl isomalt; ++: decomposition and metabolization of galactose and glucose from β-1,3-galactosyl isomalt; +++: complete decomposition of β-1,3-galcatosyl isomalt; conditions: medium 2, 48 h
Procedure: as §1, §2, §3, §4

[8] = tested on: B. catenulatum DSM 20224; experiment: Fermentation by human bifidobacteria; type: cell-based; design: key: −: no decomposition; +: decomposition and metabolization of galactose from β-1,3-galactosyl isomalt; ++: decomposition and metabolization of galactose and glucose from β-1,3-galactosyl isomalt; +++: complete decomposition of β-1,3-galcatosyl isomalt; conditions: medium 2, 48 h
Procedure: as §1, §2, §3, §4

[9] = tested on: B. longum DSM 20219; experiment: Fermentation by human bifidobacteria; type: cell-based; design: key: −: no decomposition; +: decomposition and metabolization of galactose from β-1,3-galactosyl isomalt; ++: decomposition and metabolization of galactose and glucose from β-1,3-galactosyl isomalt; +++: complete decomposition of β-1,3-galcatosyl isomalt; conditions: medium 2, 48 h
Procedure: as §1, §2, §3, §4

[10] = tested on: human feces; experiment: In vitro fermentation in human feces; type: cell-based; conditions: for Degradation rate: 0.5% (w/v) substrate, feces suspension, anaerobic, 37° C.
Procedure: Incubation of carbohydrates with human feces allows statements to be made about the rate of metabolization by the bacterial population and formation of the short-chain fatty acid butyric acid.
To invest the fermentability in an in vitro fermentation experiment, Raftilose® P95 (fructooligosaccharides, DP4-5), galactosyl lactose (Oligomate DP 3) and lactosucrose were used for comparison as carbohydrates of similar structure and degree of polymerization, in addition to β-galactosyl isomalts.
An anaerobic medium of the following composition was used for the in vitro experiments:
9 mL of the anaerobic medium 1 described above are mixed with 0.5% (w/v) of the galactosyl isomalts to be tested (prepared according to Examples 1-3) and the corresponding controls lactosucrose and galactosyl lactose and then inoculated with 1 mL of a 10% feces suspension (mixed feces from two subjects) in anaerobic 50 mmol/L phosphate buffer, pH 7.0, to which 0.5 g/L cysteine/HCl was added beforehand as reducing agent.
The batches are then incubated in “Hungate” test tubes for a maximum of 28 h while shaking at 37° C. Samples are taken at various times and tested for content of residual oligosaccharides, short-chain fatty acids, lactic acid and pH.

[11] = Stability in the stomach: hydrolysis rate at pH 2.0; type: physicochemical; conditions: 1% solution, 10 mmol/L hydrochloric acid, pH 2.0, 37° C.
Procedure: The stability of a substance in the gastric passage can be simulated by determining the hydrolysis rate at pH 2.0. Sucrose and 1-kestose are used as controls.
In each case a 1% solution of the trisaccharides (DP 3) from Example 4 is incubated with 10 mmol/L hydrochloric acid, pH 2.0 at 37° C. for 3 h. Samples are taken from the reaction mixture after 60, 120 and 180 min and are analyzed by basic anion exchange chromatography, HPAEC.

[12] = tested on: lactase; experiment: Stability with respect to lactase; type: in vitro ADME; conditions: 0.9 unit lactase, 1% solution, 37° C., 6 h
Description: The enzyme lactase that is present at the mucosa in the small intestine serves in vivo to break down lactose that gets into the small intestine and the resulting monosaccharides are absorbed into the bloodstream through the intestinal wall.
The enzyme lactase is isolated in a modified method of Wallenfels, K., and Fischer, J. (Z. Physiologische Chemie 321 (1960) 223).
Solutions 1-5: see Example 8c)
Solution 6: 1% solution of lactose in solution 1
Solution 7: 1% solution of isomalt in solution 1
Solution 8: Lactase in solution 1
(solutions 2-7), mixed and incubated at 37° C. The reaction is stopped after 6 h by heating to 95° C. for 15 min.

OCC1O[C@H](OC[C@@H](O)[C@@H](O)[C@H](O)C(O)CO)C(O)C(O[C@@H]2OC(CO)[C@H](O)C(O)C2O)[C@@H]1O (mixture of isomers) [β-1,3-Galactosyl isomalt, β-D-galactosyl-(1→3)-α-D-glucosyl-(1→6)-D-sorbitol(β-1,3-galactosyl-1,6-GPS) and β-D-galactosyl-(1→3)-α-D-glucosyl-(1→1)-D-mannitol(β-1,3-galactosyl-1,1-GPM)]
Growth on β-1,3-galactosyl isomalt [1]: −
Growth on β-1,3-galactosyl isomalt [2]: ++
Growth on β-1,3-galactosyl isomalt [3]: ++
Growth on β-1,3-galactosyl isomalt [4]: ++
Growth on β-1,3-galactosyl isomalt [5]: ++
Growth on β-1,3-galactosyl isomalt [6]: +
Growth on β-1,3-galactosyl isomalt [7]: ++
Growth on β-1,3-galactosyl isomalt [8]: ++
Growth on β-1,3-galactosyl isomalt [9]: +++
Butyrate content (end sample) ([10]; end of fermentation with human feces): 13.3 mmol/L
Degradation rate ([10]; incubation time 7 (h)): 62%
Degradation rate ([10]; incubation time 22 (h)): 93.6%
Degradation rate ([10]; incubation time 28 (h)): 97%
Hydrolysis rate [%] ([11]; incubation time 0 min): 0%
Hydrolysis rate [%] ([11]; incubation time 60 min): 0%
Hydrolysis rate [%] ([11]; incubation time 120 min): 0%
Hydrolysis rate [%] ([11]; incubation time 180 min): <1%
Hydrolysis rate [%], incubation with lactase [12]: 4.8%
